Results: publication PMC6017357, “In Vitro Inhibitory Effects of Synthetic Cannabinoid EAM-2201 on Cytochrome P450 and UDP-Glucuronosyltransferase Enzyme Activities in Human Liver Microsomes” (Molecules : A Journal of Synthetic Chemistry and Natural …, 2018)

Target: T1, CYP1A2 (Homo sapiens, UniProt P05177)
T1 construct: from tissue; host or cells: ultrapooled human liver microsomes
T1 sequence (P05177 1-516): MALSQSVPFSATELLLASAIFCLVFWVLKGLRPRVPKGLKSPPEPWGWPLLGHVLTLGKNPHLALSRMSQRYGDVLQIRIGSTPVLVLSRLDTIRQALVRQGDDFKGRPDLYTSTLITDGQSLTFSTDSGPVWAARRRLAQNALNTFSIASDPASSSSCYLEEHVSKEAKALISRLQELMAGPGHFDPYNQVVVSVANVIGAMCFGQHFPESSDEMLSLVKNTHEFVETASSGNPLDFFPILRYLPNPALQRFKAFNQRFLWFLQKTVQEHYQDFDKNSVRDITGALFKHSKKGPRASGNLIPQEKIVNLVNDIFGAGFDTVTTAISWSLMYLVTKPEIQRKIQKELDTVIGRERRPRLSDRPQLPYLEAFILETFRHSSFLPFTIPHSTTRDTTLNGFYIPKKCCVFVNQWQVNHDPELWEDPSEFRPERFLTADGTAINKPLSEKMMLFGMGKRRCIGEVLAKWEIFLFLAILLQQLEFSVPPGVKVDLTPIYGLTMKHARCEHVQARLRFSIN
Assay: CYP1A2-mediated phenacetin O-deethylation in pooled human liver microsomes
Assay type: in vitro ADME
Conditions: up to 50 µM, without 30-min preincubation
Method: The inhibitory potential (IC50 values) of EAM-2201 on CYP1A2, CYP2A6, CYP2C8, CYP2C9, CYP2C19, CYP2D6 and CYP3A4 were evaluated using ultrapooled human liver microsomes and a cocktail of seven CYP substrates followed by LC-tandem mass spectrometry (LC-MS/MS) as previously described. […] Aliquots (5 µL) of the diluted supernatants were analyzed using LC-MS/MS. […]
The metabolites formed from CYP substrates were simultaneously quantified using our previously described LC-MS/MS method. […] Quantification was performed by selected reaction monitoring (SRM) of the [M + H]^+ ion and the related product ion for each metabolite: acetaminophen, 152.1 > 110.3; N-desethylamodiaquine, 328.1 > 283.0; 7-hydroxycoumarin, 163.0 > 107.2; 4-hydroxybupropion, 256.1 > 238.0; 4′-hydroxydiclofenac, 312.0 > 231.1; 4′-hydroxy-mephenytoin, 235.1 > 150.1; 1′-hydroxybufuralol, 278.1 > 186.1; 1′-hydroxymidazolam, 341.9 > 324.0; ^13C2,^15N-acetaminophen, 155.1 > 111.2; and d9-1′-hydroxybufuralol, 287.2 > 187.0. […]

Structure (SMILES): CCc1ccc(C(=O)c2cn(CCCCCF)c3ccccc23)c2ccccc12 [EAM-2201, (4-ethyl-1-naphthalenyl)[1-(5-fluoropentyl)-1H-indol-3-yl]-methanone]
- inhibition of CYP1A2-mediated phenacetin O-deethylation: negligibly inhibited
